Consider 26 molecules from US20260234129A1, “NOVEL IMIDAZOLE DERIVATIVE AND USE THEREOF” (PELEMED CO., LTD., priority 2023, published 2026).

In the assay the test system is MV4-11 cells (FLT3-ITD-expressing AML cell line). Put plainly: Cell proliferation inhibition, Alamar Blue. It is filed as cell-based, human. The settings on record: Homo sapiens, MV4-11, 72 hours of compound treatment, read-out: Cellular (GI50) MV4-11. The protocol: The cell proliferation inhibition experiment on acute myeloid leukemia (AML) cell lines was performed using FL3-ITD-expressing AML cell line MV4-11, BaF3-ITD-FLT3 F691L cell line, and BaF3-ITD-FLT3 D835Y cell line to test FLT3 inhibitory activity. All cell lines were human-derived cell lines, and the sources and culture conditions for each cell line are as follows.
Cell viability was assessed by a resazurin redox-based assay using the Alamar Blue Assay kit (Invitrogen, USA). Specifically, MV4-11, BaF3-ITD-FLT3-F691L, and BaF3-ITD-FLT3-D835Y cells were plated in 384-well plates at 8,000 cells in 45 μL of medium. As a negative control, dimethyl sulfoxide (DMSO) was added together with the compound. After three days (72 hours) of compound treatment, 5 μL of the Alamar Blue kit reagent was added to each well of the 384-well plates, followed by incubation at 37° C. for 2 hours in a humidified CO2 incubator. After incubation, fluorescence intensity (Flu) was measured at 544 nm and 590 nm using a SpectraMax iD3 Multi Mode Microplate Reader (Molecular Devices, ID3-STD).
On the technique in general: Resazurin is reduced to fluorescent resorufin, in cell work by metabolically active cells.
For the molecule `NCCCNC(=O)c1ccc2[nH]nc(-c3nc4cccc(F)c4[nH]3)c2c1` [Example 25, N-(3-aminopropyl)-3-(7-fluoro-1H-benzo[d]imidazol-2-yl)-1H-indazole-5-carboxamide], the GI50 (as a rule, the concentration at which growth is held to half of that of the control) fell in the range of 10 to 100 nM.
As for `NCCCNC(=O)c1ccc2[nH]nc(-c3ncc(-c4cccc([N+](=O)[O-])c4)[nH]3)c2c1` [Example 89, N-(3-aminopropyl)-3-(5-(3-nitrophenyl)-1H-imidazol-2-yl)-1H-indazole-5-carboxamide], the figure is 100 to 1000 nM; as for `CN(C)CCNC(=O)c1ccc2[nH]nc(-c3nc4ccc(N5CCOCC5)cc4[nH]3)c2c1` [Example 62, N-(2-(dimethylamino)ethyl)-3-(6-morpholino-1H-benzo[d]imidazol-2-yl)-1H-indazole-5-carboxamide], under 10 nM; as for `CN(C)CCOc1ccc2nc(-c3n[nH]c4ccc(C(=O)NCCCN)cc34)[nH]c2c1` [Example 24, N-(3-aminopropyl)-3-(6-(2-(dimethylamino)ethoxy)-1H-benzo[d]imidazol-2-yl)-1H-indazole-5-carboxamide], 100 to 1000 nM.
As to `CN1CCN(C(=O)c2ccc3[nH]nc(-c4nc(-c5ccccc5)c[nH]4)c3c2)CC1` [Example 99, (4-methylpiperazin-1-yl)(3-(4-phenyl-1H-imidazol-2-yl)-1H-indazol-5-yl)methanone], the concentration for 50% growth inhibition (GI50) is over 1000 nM.
In the case of `NC1CCN(CCNC(=O)c2ccc3[nH]nc(-c4nc5ccccc5[nH]4)c3c2)CC1` [Example 8, N-(2-(4-aminopiperidin-1-yl)ethyl)-3-(1H-benzo[d]imidazol-2-yl)-1H-indazole-5-carboxamide], the GI50 fell in the range of 10 to 100 nM.
As for `NCCCNC(=O)c1ccc2[nH]nc(-c3ncc(-c4ccc(Cl)c(F)c4)[nH]3)c2c1` [Example 85, N-(3-aminopropyl)-3-(5-(4-chloro-3-fluorophenyl)-1H-imidazol-2-yl)-1H-indazole-5-carboxamide], the figure is 10 to 100 nM; as for `O=C(N[C@@H]1CCCNC1)c1ccc2[nH]nc(-c3nc4ccc(F)cc4[nH]3)c2c1` [Example 41, (R)-3-(6-fluoro-1H-benzo[d]imidazol-2-yl)-N-(piperidin-3-yl)-1H-indazole-5-carboxamide], over 1000 nM; as for `NCCCNC(=O)c1ccc2[nH]nc(-c3ncc(-c4ccc(F)cc4)[nH]3)c2c1` [Example 81, N-(3-aminopropyl)-3-(5-(4-fluorophenyl)-1H-imidazol-2-yl)-1H-indazole-5-carboxamide], 10 to 100 nM.
With `CNC1CCN(C(=O)c2ccc3[nH]nc(-c4nc5ccc(N6CCOCC6)cc5[nH]4)c3c2)CC1` [Example 70, (4-(methylamino)piperidin-1-yl)(3-(6-morpholino-1H-benzo[d]imidazol-2-yl)-1H-indazol-5-yl)methanone], the GI50 lay in the range of 10 to 100 nM.
As for `COc1cccc(-c2cnc(-c3n[nH]c4ccc(C(=O)NCCCN)cc34)[nH]2)c1` [Example 88, N-(3-aminopropyl)-3-(5-(3-methoxyphenyl)-1H-imidazol-2-yl)-1H-indazole-5-carboxamide], the figure is 10 to 100 nM; as for `CN1CCN(CCn2c(-c3n[nH]c4ccc(C(=O)NCCCN)cc34)nc3ccc(F)cc32)CC1` [Example 108, N-(3-aminopropyl)-3-(6-fluoro-1-(2-(4-methylpiperazin-1-yl)ethyl)-1H-benzo[d]imidazol-2-yl)-1H-indazole-5-carboxamide], over 1000 nM; as for `NCCN1CCC(NC(=O)c2ccc3[nH]nc(-c4nc5ccccc5[nH]4)c3c2)CC1` [Example 112, N-(1-(2-aminoethyl)piperidin-4-yl)-3-(1H-benzo[d]imidazol-2-yl)-1H-indazole-5-carboxamide], 10 to 100 nM.
In the case of `NCCCNC(=O)c1ccc2[nH]nc(-c3ncc(-c4ccc(N5CCOCC5)cc4)[nH]3)c2c1` [Example 90, N-(3-aminopropyl)-3-(5-(4-morpholinophenyl)-1H-imidazol-2-yl)-1H-indazole-5-carboxamide] it was 100 to 1000 nM; in that of `O=C(NCCCO)c1ccc2[nH]nc(-c3nc4ccc(F)cc4[nH]3)c2c1` [Example 111, 3-(6-fluoro-1H-benzo[d]imidazol-2-yl)-N-(3-hydroxypropyl)-1H-indazole-5-carboxamide], 100 to 1000 nM.
As for `NCCCCNC(=O)c1ccc2[nH]nc(-c3nc4ccc(F)cc4[nH]3)c2c1` [Example 39, N-(4-aminobutyl)-3-(6-fluoro-1H-benzo[d]imidazol-2-yl)-1H-indazole-5-carboxamide], the figure is 100 to 1000 nM; as for `NCCCNC(=O)c1ccc2[nH]nc(-c3ncc(COc4ccccc4)[nH]3)c2c1` [Example 115, N-(3-aminopropyl)-3-(5-(phenoxymethyl)-1H-imidazol-2-yl)-1H-indazole-5-carboxamide], over 1000 nM.
Consider `NCCCNC(=O)c1ccc2[nH]nc(-c3ncc(-c4ccc(C(F)(F)F)cc4)[nH]3)c2c1` [Example 86, N-(3-aminopropyl)-3-(5-(4-(trifluoromethyl)phenyl)-1H-imidazol-2-yl)-1H-indazole-5-carboxamide], for which the GI50 was 10 to 100 nM.
As for `NCCCNC(=O)c1ccc2[nH]nc(-c3ncc(-c4cccc(N)c4)[nH]3)c2c1` [Example 93, 3-(5-(3-aminophenyl)-1H-imidazol-2-yl)-N-(3-aminopropyl)-1H-indazole-5-carboxamide], the figure is 100 to 1000 nM; as for `NCCCNC(=O)c1ccc2c(-c3nc4ccc(F)cc4[nH]3)n[nH]c2c1` [Example 110, N-(3-aminopropyl)-3-(6-fluoro-1H-benzo[d]imidazol-2-yl)-1H-indazole-6-carboxamide], over 1000 nM.
Turning to `CC(=O)NCCCNC(=O)c1ccc2[nH]nc(-c3nc4ccc(N5CCCCC5)cc4[nH]3)c2c1` [Example 33, N-(3-acetamidopropyl)-3-(6-(piperidin-1-yl)-1H-benzo[d]imidazol-2-yl)-1H-indazole-5-carboxamide], the GI50 is under 10 nM.
`CS(=O)(=O)NCCNC(=O)c1ccc2[nH]nc(-c3nc(-c4ccccc4)c[nH]3)c2c1` [Example 94, N-(2-(methylsulfonamido)ethyl)-3-(4-phenyl-1H-imidazol-2-yl)-1H-indazole-5-carboxamide]: the GI50 was over 1000 nM.
In the case of `NCCNC(=O)c1ccc2[nH]nc(-c3nc4ccc(F)cc4[nH]3)c2c1` [Example 37, N-(2-aminoethyl)-3-(6-fluoro-1H-benzo[d]imidazol-2-yl)-1H-indazole-5-carboxamide] it was 10 to 100 nM; in that of `NCCCNC(=O)c1ccc2[nH]nc(-c3ncc(-c4cccc(N5CCOCC5)c4)[nH]3)c2c1` [Example 91, N-(3-aminopropyl)-3-(5-(3-morpholinophenyl)-1H-imidazol-2-yl)-1H-indazole-5-carboxamide], 10 to 100 nM.
In the case of `CC(=O)N1CC(CNC(=O)c2ccc3[nH]nc(-c4nc5ccc(N6CCOCC6)cc5[nH]4)c3c2)C1` [Example 61, N-((1-acetylazetidin-3-yl)methyl)-3-(6-morpholino-1H-benzo[d]imidazol-2-yl)-1H-indazole-5-carboxamide] it was over 1000 nM.
In the case of `CN(C)CCNC(=O)c1ccc2[nH]nc(-c3nc(-c4ccccc4)c[nH]3)c2c1` [Example 95, N-(2-(dimethylamino)ethyl)-3-(4-phenyl-1H-imidazol-2-yl)-1H-indazole-5-carboxamide] it was 100 to 1000 nM.
